Source: PMC6297231 (Nature Communications, 2018)

Key:
Assay in all cases: cells
RT4 = settings: Homo sapiens, RT-4, 6 h, read-out: AZD5991 6h EC50
Description: (§1) Cells were plated at 3000 cells/well in 384-well white plates in corresponding cell growth media. […] Caspase-3/7 activation was subsequently determined using a Caspase-Glo 3/7 Reagent (Promega) and viability was assayed using the CellTiter-Glo Reagent (Promega) as described in manufacturer’s instructions. Dose–response curves for caspase-3/7 activation and viability were plotted and analyzed (including EC50 and GI50 determination) using GraphPad Prism. Percentage of caspase activation was calculated against the maximum caspase activation value (100%) obtained with a proprietary cell kill control.

H322 = settings: NCI-H322, 6 h, read-out: AZD5991 6h EC50
Description: as §1

HL60 = settings: Homo sapiens, HL-60, 6 h, read-out: AZD5991 6h EC50
Description: as §1

H209 = settings: Homo sapiens, NCI-H209, 6 h, read-out: AZD5991 6h EC50
Description: as §1

Sudhl6 = settings: Homo sapiens, SU-DHL-6, 6 h, read-out: AZD5991 6h EC50
Description: as §1

MM1S = settings: Homo sapiens, MM1.S, 6 h, read-out: AZD5991 6h EC50
Description: as §1

H358 = settings: Homo sapiens, NCI-H358, 6 h, read-out: AZD5991 6h EC50
Description: as §1

Kasumi3 = settings: Kasumi-3, 6 h, read-out: AZD5991 6h EC50
Description: as §1

DMS53 = settings: Homo sapiens, DMS-53, 6 h, read-out: AZD5991 6h EC50
Description: as §1

COLO829 = settings: Homo sapiens, COLO-829, 6 h, read-out: AZD5991 6h EC50
Description: as §1

DLD1 = settings: Homo sapiens, DLD-1, 6 h, read-out: AZD5991 6h EC50
Description: as §1

SKOV3 = settings: Homo sapiens, SK-OV-3, 6 h, read-out: AZD5991 6h EC50
Description: as §1

WM2664 = settings: Homo sapiens, WM 266-4, 6 h, read-out: AZD5991 6h EC50
Description: as §1

A101D = settings: Homo sapiens, 6 h, read-out: AZD5991 6h EC50
Description: as §1

SNU16 = settings: Homo sapiens, SNU-16, 6 h, read-out: AZD5991 6h EC50
Description: as §1

ULA = settings: 6 h, read-out: AZD5991 6h EC50
Description: as §1

ZR751 = settings: Homo sapiens, ZR-75-1, 6 h, read-out: AZD5991 6h EC50
Description: as §1

DOHH2 = settings: Homo sapiens, DOHH-2, 6 h, read-out: AZD5991 6h EC50
Description: as §1

H2126 = settings: Homo sapiens, NCI-H2126, 6 h, read-out: AZD5991 6h EC50
Description: as §1

BT20 = settings: Homo sapiens, BT-20, 6 h, read-out: AZD5991 6h EC50
Description: as §1

LK2 = settings: Homo sapiens, LK-2, 6 h, read-out: AZD5991 6h EC50
Description: as §1

GIST 430/654 = settings: GIST-430/654, 6 h, read-out: AZD5991 6h EC50
Description: as §1

H1734 = settings: Homo sapiens, NCI-H1734, 6 h, read-out: AZD5991 6h EC50
Description: as §1

MCF7 = settings: Homo sapiens, MCF7, 6 h, read-out: AZD5991 6h EC50
Description: as §1

LP1 = settings: Homo sapiens, LP-1, 6 h, read-out: AZD5991 6h EC50
Description: as §1

GIST T1 = settings: Homo sapiens, GISTT1, 6 h, read-out: AZD5991 6h EC50
Description: as §1

TMD8 = settings: Homo sapiens, TMD8, 6 h, read-out: AZD5991 6h EC50
Description: as §1

FaDu = settings: Homo sapiens, 6 h, read-out: AZD5991 6h EC50
Description: as §1

Sudhl8 = settings: Homo sapiens, SU-DHL-8, 6 h, read-out: AZD5991 6h EC50
Description: as §1

OCILY19 = settings: Homo sapiens, OCI-LY19, 6 h, read-out: AZD5991 6h EC50
Description: as §1

Pfeiffer = settings: Homo sapiens, 6 h, read-out: AZD5991 6h EC50
Description: as §1

DMS114 = settings: Homo sapiens, DMS-114, 6 h, read-out: AZD5991 6h EC50
Description: as §1

Calu1 = settings: Homo sapiens, Calu-1, 6 h, read-out: AZD5991 6h EC50
Description: as §1

OV90 = settings: Homo sapiens, OV-90, 6 h, read-out: AZD5991 6h EC50
Description: as §1

OVCAR3 = settings: Homo sapiens, OVCAR-3, 6 h, read-out: AZD5991 6h EC50
Description: as §1

In the case of `Cc1c2c(nn1C)CSCc1cc(n(C)n1)CSc1cc(c3ccccc3c1)OCCCc1c(C(=O)O)n(C)c3c-2c(Cl)ccc13` (atropisomer, axis not shown; (Ra)) [(Ra)-7], the EC50 (RT4) is reported as 18.1 µM, the EC50 (H322) is reported as greater than 30 µM and the EC50 (HL60) is reported as 0.656 µM. It also gave an EC50 (H209) greater than 30 µM, an EC50 (Sudhl6) of 0.056 µM and an EC50 (MM1S) of 3.6 µM. The EC50 (H358) was greater than 30 µM, the EC50 (Kasumi3) was 0.882 µM and the EC50 (DMS53) was greater than 30 µM. The EC50 (COLO829) was greater than 30 µM, the EC50 (DLD1) was 29.1 µM and the EC50 (SKOV3) was greater than 30 µM. It also gave an EC50 (WM2664) greater than 30 µM, an EC50 (A101D) of 1.52 µM and an EC50 (SNU16) of 0.183 µM. For the same compound, the EC50 (ULA) was 0.207 µM, the EC50 (ZR751) was greater than 30 µM and the EC50 (DOHH2) was 0.136 µM. For the same compound, the EC50 (H2126) was 0.157 µM, the EC50 (BT20) was greater than 30 µM and the EC50 (LK2) was greater than 30 µM. For the same compound, the EC50 (GIST 430/654) was 18.6 µM, the EC50 (H1734) was 20.1 µM and the EC50 (MCF7) was 0.313 µM. The EC50 (LP1) was 0.249 µM, the EC50 (GIST T1) was greater than 30 µM and the EC50 (TMD8) was greater than 30 µM. It also gave an EC50 (FaDu) of 23.3 µM, an EC50 (Sudhl8) of 0.595 µM and an EC50 (OCILY19) of 0.188 µM. It also gave an EC50 (Pfeiffer) greater than 30 µM, an EC50 (DMS114) of 0.29 µM and an EC50 (Calu1) greater than 30 µM. For the same compound, the EC50 (OV90) was greater than 30 µM and the EC50 (OVCAR3) was greater than 30 µM.
